Test results published in PMC6287599, “2,6-Bis(2-Benzimidazolyl)Pyridine (BBP) Is a Potent and Selective Inhibitor of Small Conductance Calcium-Activated Potassium (SK) Channels” (Frontiers in Pharmacology, 2018).

Tests used:
Assay type in all cases: cell-based
hSK1 = hSK1 (Homo sapiens, UniProt Q92952); assay: Manual whole cell patch clamp, HEK293 transiently transfected with hSK1; details: BBP 1 μM, compared to positive control bicuculline methiodide 100 μM, n = 6, read-out: Inhibition of hSK1 current
Description: (§1) HEK293 cells were transiently co-transfected with the plasmid of interest (hBK, hSK1, hSK2, hSK3 WT, rSK3 H491N, or hIK) and eGFP using standard Lipofectamine™ 2000 (Thermo Fisher Scientific, Waltham, Massachussets, USA) transfection protocols. After transfection, cells were incubated overnight before the experiments.
(§2) Manual patch clamp experiments were performed at room temperature in the whole cell configuration with a HEKA EPC9 amplifier and the Patchmaster software (HEKA Elektronik, Ludwigshafen, Germany). All currents were elicited every 2 s using an incremental 200 ms voltage-ramp protocol starting at −80 mV and finishing at +80 mV from a holding potential of 0 mV. […] Currents were measured using the same solutions as the ones used for automated patch clamp, with symmetrical potassium concentrations and a free intracellular calcium concentration of 400 nM. […]
(§3) To assess the effect of BBP on other calcium-activated potassium channels (hBK, hSK3 WT, rSK3 H491N, and hIK), each individual current was first normalized to its cell size using membrane's capacitance (pA/pF) before statistical analysis. […] Statistical significance between saline and the effect of both BBP and the corresponding reference compound was determined for each channel using one-way ANOVA analysis. […]

hBK = biological target: T1, hBK (Homo sapiens, UniProt Q12791); assay: Manual whole cell patch clamp, HEK293 transiently transfected with hBK; details: BBP 1 μM, manual patch clamp, 100 nM free intracellular calcium, n = 8
T1 construct: expressed in transfected cells; host or cells: HEK293 (transient, co-transfected with eGFP)
T1 sequence (Q12791 whole entry): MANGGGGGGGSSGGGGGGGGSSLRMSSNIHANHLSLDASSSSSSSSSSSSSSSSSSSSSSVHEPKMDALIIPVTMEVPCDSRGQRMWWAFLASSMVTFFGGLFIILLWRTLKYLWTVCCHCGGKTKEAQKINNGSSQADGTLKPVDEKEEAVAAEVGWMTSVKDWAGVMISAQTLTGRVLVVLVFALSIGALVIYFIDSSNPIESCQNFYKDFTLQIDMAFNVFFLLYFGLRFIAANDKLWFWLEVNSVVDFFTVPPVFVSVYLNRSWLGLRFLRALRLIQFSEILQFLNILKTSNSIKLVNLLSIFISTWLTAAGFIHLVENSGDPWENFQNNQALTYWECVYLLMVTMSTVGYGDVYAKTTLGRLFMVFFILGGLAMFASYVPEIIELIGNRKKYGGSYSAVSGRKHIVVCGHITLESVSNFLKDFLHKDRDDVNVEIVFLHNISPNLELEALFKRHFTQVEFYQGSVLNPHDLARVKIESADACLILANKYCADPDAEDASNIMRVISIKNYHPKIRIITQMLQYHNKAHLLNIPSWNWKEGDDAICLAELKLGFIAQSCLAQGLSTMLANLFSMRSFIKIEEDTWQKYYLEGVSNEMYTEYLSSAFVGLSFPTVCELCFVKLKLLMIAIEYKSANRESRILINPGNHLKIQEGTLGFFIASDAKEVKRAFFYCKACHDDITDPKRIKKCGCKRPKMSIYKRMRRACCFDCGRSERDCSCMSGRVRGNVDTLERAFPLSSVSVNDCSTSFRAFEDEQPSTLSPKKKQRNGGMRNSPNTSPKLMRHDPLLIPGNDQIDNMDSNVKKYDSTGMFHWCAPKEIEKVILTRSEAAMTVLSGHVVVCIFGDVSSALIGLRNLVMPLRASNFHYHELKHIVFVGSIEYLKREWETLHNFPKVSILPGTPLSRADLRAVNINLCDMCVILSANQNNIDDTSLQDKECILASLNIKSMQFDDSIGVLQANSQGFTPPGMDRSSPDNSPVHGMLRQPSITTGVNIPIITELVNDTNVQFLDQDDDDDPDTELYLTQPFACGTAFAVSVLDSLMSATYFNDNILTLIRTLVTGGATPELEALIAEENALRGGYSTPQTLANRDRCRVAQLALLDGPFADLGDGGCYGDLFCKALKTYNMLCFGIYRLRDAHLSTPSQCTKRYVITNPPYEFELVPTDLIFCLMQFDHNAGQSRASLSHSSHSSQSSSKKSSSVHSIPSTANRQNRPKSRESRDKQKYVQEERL
Description: as §1
Manual patch clamp experiments were performed at room temperature in the whole cell configuration with a HEKA EPC9 amplifier and the Patchmaster software (HEKA Elektronik, Ludwigshafen, Germany). All currents were elicited every 2 s using an incremental 200 ms voltage-ramp protocol starting at −80 mV and finishing at +80 mV from a holding potential of 0 mV. […]
as §3
After testing BBP on the three SK channel subtypes, we decided to explore whether other calcium-activated potassium channels were affected by the compound. […] Finally, a positive control was used to inhibit the remaining current and quantify the total effect of BBP. […]

hSK2 = hSK2 (Homo sapiens, UniProt Q9H2S1); assay: Manual whole cell patch clamp, HEK293 transiently transfected with hSK2; details: BBP 1 μM, compared to positive control bicuculline methiodide 100 μM, n = 5, read-out: Inhibition of hSK2 current
Description: as §1, §2, §3

hSK3 WT = biological target: T2, hSK3 WT (Homo sapiens, UniProt Q9UGI6); assay: Manual whole cell patch clamp, HEK293 transiently transfected with hSK3 WT; details: BBP 1 μM, compared to positive control bicuculline methiodide 100 μM, n = 5, read-out: Inhibition of hSK3 current
T2 construct: expressed in transfected cells; host or cells: HEK293 (transient, co-transfected with eGFP)
Description: as §1, §2, §3

c1cc(-c2nc3ccccc3[nH]2)nc(-c2nc3ccccc3[nH]2)c1 [BBP, 2,6-Bis(2-benzimidazolyl)pyridine]
inhibition at 1 µM (hSK1): 93.7 ± 1.6% | Reduction of hBK current (hBK): 19 ± 6% | inhibition at 1 µM (hSK2): 94.8 ± 2.1% | inhibition at 1 µM (hSK3 WT): 92.5 ± 2.3%
